Values after ≈ are worked out from the molar mass of the structure shown. Like-named read-outs stand apart in the source and are kept apart here.
How the values were obtained:
rA1 adenosine receptor = target: T1, rA1 adenosine receptor (Rattus norvegicus, UniProt P25099); experiment: Binding affinity at rA1 adenosine receptor
T1 sequence (P25099 1-326): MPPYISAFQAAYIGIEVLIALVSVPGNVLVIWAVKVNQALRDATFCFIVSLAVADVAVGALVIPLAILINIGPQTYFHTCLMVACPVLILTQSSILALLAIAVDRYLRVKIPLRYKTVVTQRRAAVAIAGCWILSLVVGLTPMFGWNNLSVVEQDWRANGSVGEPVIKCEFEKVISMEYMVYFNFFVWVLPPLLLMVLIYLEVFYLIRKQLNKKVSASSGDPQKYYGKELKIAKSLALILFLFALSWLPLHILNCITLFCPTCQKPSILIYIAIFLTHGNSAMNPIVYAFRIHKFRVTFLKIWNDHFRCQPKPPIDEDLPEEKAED

rA2A adenosine receptor = rA2A adenosine receptor (Rattus norvegicus, UniProt P30543); experiment: Binding affinity at rA2A adenosine receptor
Chain of rA2A adenosine receptor (P30543 whole entry): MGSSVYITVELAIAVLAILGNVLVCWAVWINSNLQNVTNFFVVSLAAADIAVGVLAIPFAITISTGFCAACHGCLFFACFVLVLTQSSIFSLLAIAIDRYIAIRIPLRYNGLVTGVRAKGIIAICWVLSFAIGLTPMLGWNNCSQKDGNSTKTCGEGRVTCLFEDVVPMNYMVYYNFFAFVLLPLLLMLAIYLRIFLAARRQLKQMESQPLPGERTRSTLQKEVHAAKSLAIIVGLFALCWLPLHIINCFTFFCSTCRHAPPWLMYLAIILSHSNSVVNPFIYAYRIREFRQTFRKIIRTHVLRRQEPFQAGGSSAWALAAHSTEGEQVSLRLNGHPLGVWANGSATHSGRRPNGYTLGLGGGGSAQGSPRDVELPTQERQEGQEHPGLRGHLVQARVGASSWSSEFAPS

[1] = tested on: human melanoma A375 cell line; experiment: MTT growth inhibitory assay, A375; assay type: cell-based
Experimental: (§1) One of the growth inhibitory assays is the MTT assay. Cells (1000-1500 cells/well) are seeded in a 96-well micro culture plate in a total volume of 100 μl/well. After overnight incubation in a humidified incubator at 37° C. with 5% CO2-95% air, chemotherapeutic drug solutions diluted with culture medium at various concentrations are added in the amount of 100 μl to each well. The plates are placed in a humidified incubator at 37° C. with 5% CO2-95% air for 7-10 days. The plates are then centrifuged briefly and 100 μl of the growth medium is removed. Cell cultures are incubated with 50 μl of MTT [3-(4,5-dimethylthiazol-2-yl)-2,5-diphenyl-tetrazolium bromide] reagent (1 mg/ml in Dulbecco's phosphate-buffered saline) for 4 hr at 37° C. The resultant purple formazan precipitate is solubilized with 200 μl of 0.04 N HCl in isopropanol. Absorbance is measured at a wavelength of 595 nm and at a reference wavelength of 655 nm using a Bio-Rad Model 3550 Microplate Reader. Preferably, all tests are run in duplicate for each dose level.
(§2) The EZED50 computer program estimates the concentration of agent that inhibits cell growth by 50% as compared to the control cells. This is termed the IC50 and is determined by curve fitting test data using the following four logistic equation. [formula]
(§3) Inhibitory assay testing is also used to determine enhanced therapeutic effects from combining A3 receptor antagonists with other tumor inhibiting agents. The inhibitory cell growth assays are run with and without selected concentrations of A3 receptor antagonists. An enhanced therapeutic effect is present when the IC50 of the tumor inhibiting agent is lower with the A3 receptor antagonist.
(§4) Quantitatively, the enhancement factor (EF) is calculated by dividing the IC50 value of the tumor inhibiting agent for a tumor cell line by the IC50 value of the agent with A3 receptor antagonist for the same cell line: [formula]

[2] = tested on: human colon carcinoma HT29 cell line; experiment: MTT growth inhibitory assay, HT29; assay type: cell-based
Experimental: as §1, §2, §3, §4

[3] = tested on: human pancreatic cancer Panc-1; experiment: MTT growth inhibitory assay, Panc-1; assay type: cell-based
Experimental: as §1, §2, §3, §4

[4] = tested on: human lung carcinoma SKMES; experiment: MTT growth inhibitory assay, SKMES; assay type: cell-based
Experimental: as §1, §2, §3, §4

A375 cells = experiment: Flow cytometry (PI) G2/M accumulation and sub-G1 apoptosis, A375; assay type: cell-based, human; details: A375, vindesine 1 nM, G2/M accumulation dose response curve, read-out: SEC50 (dose inducing 50% of the enhancing activity to vindesine)
Experimental: A375 and NCTC2544 adherent cells were trypsinized, mixed with floating cells, washed with PBS and permeabilised in 70% (vol/vol) ethanol/PBS solution at 4° C. for at least 24 hours. Jurkat, HeL023 and PBMC cells were centrifuged for 10 minutes at 1000×g. The cell pellet was then resuspended and permeabilised in 70% (vol/vol) ethanol/PBS solution at 4° C. for at least 24 hours. The cells were washed with PBS and the DNA was stained with a PBS solution, containing 20 μg/ml of propidium iodide and 100 μg/ml of RNAse, at room temperature for 30 minutes. Cells were analysed by FACScan (Becton-Dickinson) and the content of DNA was evaluated by the Cell-LISYS program (Becton-Dickinson). Cell distribution among cell cycle phases and apoptotic cells was evaluated as previously described (Secchiero et al., 2001). Briefly, the cell cycle distribution is shown as the percentage of cells containing 2n (G1 phase), 4n (G2 and M phases), 4n>x>2n. DNA amount (S phase) judged by propidium iodide staining. The apoptotic population is the percentage of cells with DNA content lower than 2n.
Cell proliferation and apoptosis are quantified by flow cytometer analysis after propidium-iodide (PI) DNA staining.

[5] = target: T2, P-gp drug efflux activity in HeL023 cells (Homo sapiens, UniProt P08183); experiment: Rhodamine 123 efflux assay, HeL023 cells; assay type: cell-based; details: Rh123 efflux, concentrations of Table 11 (MRE3008F20 10 μM)
T2 construct: nearly all (100±1%) the cells expressing high level of functional P-gp; endogenous in cells; host or cells: HeL023 human erythroleukemia cells
T2 sequence (P08183 whole entry): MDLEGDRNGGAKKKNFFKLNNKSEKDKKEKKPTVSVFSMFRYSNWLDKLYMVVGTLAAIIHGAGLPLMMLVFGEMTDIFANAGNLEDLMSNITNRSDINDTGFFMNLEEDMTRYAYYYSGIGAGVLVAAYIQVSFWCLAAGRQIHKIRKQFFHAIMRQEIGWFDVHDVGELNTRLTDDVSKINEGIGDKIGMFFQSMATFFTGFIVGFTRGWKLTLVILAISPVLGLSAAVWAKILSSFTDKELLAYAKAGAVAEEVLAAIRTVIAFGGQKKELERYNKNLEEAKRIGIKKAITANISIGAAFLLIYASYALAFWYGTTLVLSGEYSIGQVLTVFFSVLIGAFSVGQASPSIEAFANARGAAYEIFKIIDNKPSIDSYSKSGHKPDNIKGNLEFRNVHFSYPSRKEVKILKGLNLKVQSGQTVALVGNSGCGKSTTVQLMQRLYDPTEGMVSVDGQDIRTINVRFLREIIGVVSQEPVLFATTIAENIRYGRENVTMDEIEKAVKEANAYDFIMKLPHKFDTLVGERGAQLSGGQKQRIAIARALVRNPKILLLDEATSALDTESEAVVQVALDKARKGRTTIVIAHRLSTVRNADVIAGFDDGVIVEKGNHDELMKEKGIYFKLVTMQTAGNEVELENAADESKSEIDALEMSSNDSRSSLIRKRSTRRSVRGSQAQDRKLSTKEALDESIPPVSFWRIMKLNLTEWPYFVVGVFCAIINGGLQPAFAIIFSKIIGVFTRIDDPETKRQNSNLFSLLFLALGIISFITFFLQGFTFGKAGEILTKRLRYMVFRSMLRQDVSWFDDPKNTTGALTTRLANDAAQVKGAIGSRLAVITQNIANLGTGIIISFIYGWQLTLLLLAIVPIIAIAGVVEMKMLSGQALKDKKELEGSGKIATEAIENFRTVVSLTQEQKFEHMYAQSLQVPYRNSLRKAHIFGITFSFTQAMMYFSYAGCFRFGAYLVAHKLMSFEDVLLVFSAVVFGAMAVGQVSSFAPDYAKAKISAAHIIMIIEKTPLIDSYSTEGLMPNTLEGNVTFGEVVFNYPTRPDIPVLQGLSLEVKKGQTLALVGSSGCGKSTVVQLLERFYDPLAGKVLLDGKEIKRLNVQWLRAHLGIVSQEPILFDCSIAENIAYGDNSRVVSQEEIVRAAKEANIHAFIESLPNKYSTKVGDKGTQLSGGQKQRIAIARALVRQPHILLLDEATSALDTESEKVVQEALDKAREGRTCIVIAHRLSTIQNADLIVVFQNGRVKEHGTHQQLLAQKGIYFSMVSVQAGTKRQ
Experimental: 5×10^5 cells from each subline were loaded with 50 ng/ml of rhodamine 123 for 30 minutes at 37° C. in medium. The cells were washed and resuspended in dye-staining agent free medium for 3 hours at 37° C. to allow rhodamine 123 efflux. The cells were then washed twice and the fluorescence of intracellular rhodamine 123 were analysed with Flow cytometer (residual fluorescence FRES). The fluorescence was compared with loaded cells maintained at 4° C. to prevent drug export (maximal fluorescence FMAX). […] Cells from each subline that were not being exposed to rhodamine 123 were used as negative controls.
Rhodamine 123 (Rh123) retention, a P-gp functional assay, was studied in all cell lines. This assay was performed by incubating cells with Rh123 and determining Rh123 accumulation by measuring its fluorescence. The maximum load of Rh123 (FMAX) was quantified at the end of treatment harvesting the cells and storing them at 4° C. to prevent any active Rh123 efflux . The P-gp drug efflux was allowed incubating Rh123-loaded cells in fresh new medium Rh123-free for 3 hours at 37° C. After this incubation, residual fluorescence (FRES) was measured and compared to FMAX.

[6] = target: T3, human A3 adenosine receptor (Homo sapiens, UniProt P0DMS8); details: read-out: Ki (binding affinity at human A3 adenosine receptor); A375 cells
T3 sequence (P0DMS8 1-318): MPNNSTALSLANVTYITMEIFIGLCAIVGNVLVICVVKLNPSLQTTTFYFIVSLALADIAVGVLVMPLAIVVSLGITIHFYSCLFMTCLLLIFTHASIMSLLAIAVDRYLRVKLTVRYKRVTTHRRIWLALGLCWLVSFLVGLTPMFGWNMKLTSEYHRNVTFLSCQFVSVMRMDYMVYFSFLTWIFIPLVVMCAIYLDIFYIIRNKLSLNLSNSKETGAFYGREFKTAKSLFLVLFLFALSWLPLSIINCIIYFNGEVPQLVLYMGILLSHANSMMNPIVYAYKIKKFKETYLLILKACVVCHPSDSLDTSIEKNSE

[7] = Panc-1, A3 antagonist 0.5 μg/ml

## CCN(CC)c1ccc(NC(=O)Nc2nc3nn(C)cc3c3nc(-c4ccco4)nn23)cc1 [IL-10, N-1-(4-diethylamino-phenyl)-N′-5-[8-methyl-2-(2-furyl)-pyrazolo[4 ,3-e]1,2,4-triazolo[1,5-c]pyrimidine]-urea]
rA1 adenosine receptor
  Ki: 580 nM
rA2A adenosine receptor
  Ki: 523 nM
[1]; A375, A3 antagonist 0.5 μg/ml
  Enhancement Factor for docetaxel: 8.4
  Enhancement Factor for paclitaxel: 3.7
[1]; A375, A3 antagonist 5 μg/ml
  Enhancement Factor for docetaxel: 2.9
[1]; A375, A3 antagonist 5 μg/ml, paclitaxel 0.0001-0.05 μg/ml
  Enhancement Factor for paclitaxel: 8.8
[1]; A375, A3 antagonist 5 μg/ml, paclitaxel 0.0002-0.1 μg/ml
  Enhancement Factor for paclitaxel: 9.2
[1]; Homo sapiens, A-375, Human Melanoma A375, read-out: IC50 growth inhibition, agent used separately
  IC50: 11.9 ± 0.4 µg/mL (≈ 26.7 µM)
[1]; Homo sapiens, A-375, A375, 5 μg/ml, read-out: growth inhibition in the presence of A3 antagonist alone
  inhibition at 5 µg/mL: 30 to 45%
[2]; HT29, A3 antagonist 0.5 μg/ml
  Enhancement Factor for docetaxel: 5.5
  Enhancement Factor for doxorubicin: 1.5
  Enhancement Factor for irinotecan HCl: 1.2
  Enhancement Factor for paclitaxel: 2.5
[2]; HT-29, Human Colon Carcinoma HT29, read-out: IC50 growth inhibition, agent used separately
  IC50: 10 ± 0.7 µg/mL (≈ 22.4 µM)
[3]; Human Pancreatic Cancer Panc-1, read-out: IC50 growth inhibition, agent used separately
  IC50: 3.9 ± 3.3 µg/mL (≈ 8.75 µM)
[3]; [7]
  Enhancement Factor for docetaxel: 1.4
  Enhancement Factor for paclitaxel: 1.7
[4]; Human Lung Carcinoma SKMES, read-out: IC50 growth inhibition, agent used separately
  IC50: 5.9 ± 0.3 µg/mL (≈ 13.2 µM)
[4]; SKMES, A3 antagonist 0.5 μg/ml
  Enhancement Factor for docetaxel: 2.8
  Enhancement Factor for irinotecan HCL: 1.7
  Enhancement Factor for paclitaxel: 2.8
  Enhancement Factor for vinblastine: 1.4
A375 cells; Homo sapiens, A-375
  EC50: 970 ± 100 nM
[5]
  inhibition of P-gp activity (in words): strong inhibitors of P-gp activity

## CCCCn1cc2c(nc(NC(=O)Nc3ccccc3)n3nc(-c4ccco4)nc23)n1 [MRE 3062F20, 5-N-(4-phenyl-carbamoyl)amino-8-butyl-2 (2furyl)-pyrazolo-[4,3e]-1,2,4triazolo[1,5-c]pyrimidine]
A375 cells
  EC50: 430 ± 40 nM
[5]
  inhibition of P-gp activity (in words): strong inhibitors of P-gp activity
[6]
  Ki: 2.3 ± 0.2 nM

From patent US20040067932A1 (priority 2002, published 2004)
